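Growth conditions: 96-well plates. Treatment: test compound, 48 hours, 5 concentrations. Analysis: linear interpolation between bracketing concentrations; unreached endpoints set to highest concentration. GI50 is the concentration that inhibits growth by half. The concentration for full growth arrest is given as TGI.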
Assays:
Assay in all cases: NCI anticancer screen, dose series, 48 h
[1] = tested on: OVCAR-5 ovarian
[2] = tested on: OVCAR-3 ovarian
[3] = tested on: OVCAR-8 ovarian
[4] = tested on: SR leukemia
[5] = tested on: SK-MEL-5 melanoma
[6] = tested on: A549 NSCLC
[7] = tested on: MDA-MB-231 breast
[8] = tested on: NCI-H23 lung
[9] = tested on: SK-MEL-28 melanoma
[10] = tested on: M14 melanoma

Row | Structure (SMILES) | GI50 [1] [µM] | TGI [1] [µM] | GI50 [2] [µM] | TGI [2] [µM] | GI50 [3] [µM] | TGI [3] [µM] | GI50 [4] [µM] | TGI [4] [µM] | GI50 [5] [µM] | TGI [5] [µM] | GI50 [6] [µM] | TGI [6] [µM] | GI50 [7] [µM] | TGI [7] [µM] | GI50 [8] [µM] | TGI [8] [µM] | GI50 [9] [µM] | TGI [9] [µM] | GI50 [10] [µM] | TGI [10] [µM]
1 | COc1ccc([C@H]2[C@@H](F)C(=O)N2c2cc(OC)c(OC)c(OC)c2)cc1F | 0.423 | > 100 | 0.0465 | 0.492 | 0.368 | > 100 | 0.0408 | > 100 | 0.0456 | 0.35 | 0.394 | > 100 | 0.355 | > 100 | 0.273 | > 100 | 15.8 | > 100 |  | 
2 | COc1ccc(-c2nnc(COc3ccc(C(=O)/C=C/c4ccco4)cc3)o2)cc1 | 5.85 | 19.1 | 1.95 | 3.95 | 3.04 | 10.1 | 1.52 | 7.28 | 3.16 | 11.1 | 3.33 | 13.8 | 2.99 | 10.4 | 7.02 | 20.5 | 2.33 | 5.41 | 4.03 | 14.6
3 | Cc1cc(I)cc(CN(C)CCCN2CCCCC2)c1O | 21 | 59.4 | 15.9 | 33.1 | 26.9 | > 100 |  | 3.57 | 8.5 | 20.7 | 16.8 | 35.7 | 18.4 | 48.6 | 19 | 56.5 | 15.9 | 31.7 | 14.4 | 27.5
4 | COc1ccc(S(=O)(=O)NNS(C)(=O)=O)cc1 |  |  |  |  |  | > 100 |  | > 100 |  | > 100 |  | > 100 |  |  |  | > 100 |  |  |  | > 100
5 | CN(C)c1nc(=Nc2ccc(N=c3nc(N(C)C)ss3)cc2)ss1 |  | > 100 |  | > 78.6 |  | 34.2 |  | 64.9 |  | > 61.2 |  | > 100 |  |  |  | 20.1 |  | 33.6 |  | 25.6
6 | Fc1cc2[nH]ncc2c2c3c(c(-c4cn[nH]c4)nc12)CCCC3 | 2.13 | 12.2 | 1.53 | 6.91 | 1.48 | > 30.2 | 0.355 | > 100 | 0.552 | 2.12 | 0.844 | > 100 | 1.5 | 5.24 | 0.958 | 4.69 | 1.19 | 3.88 | 0.541 | 4.54
7 | Nc1ncnc2c1nnn2C1OC(CO)C(O)C1O (stereo not given) |  | 15.4 |  | 9.26 |  | 8.97 | 0.049 | > 12.7 |  | 5.63 |  | 19.2 | 0.232 | 3.99 |  | 10.8 |  | 14.9 | 0.261 | 4.91
8 | CC(C)[C@H]1COC(=O)N1[C@@H]1C(=O)N([C@@H](CCC(=O)N2CCN(C3CCCC3)CC2)C(=O)N[C@@H]2CCCc3ccccc32)[C@@H]1/C=C/c1cccc(Br)c1 |  |  | 1.97 | 3.92 | 4.12 | 15.4 | 1.87 | 4.71 | 1.51 | 2.84 | 3.05 | 11.5 | 1.86 | 3.77 | 3.46 | 16.6 |  |  | 1.8 | 3.46
9 | O=S1(=O)OCCOS(=O)(=O)C1Br |  |  |  | > 100 |  | > 100 |  | > 100 |  | > 100 |  | > 100 |  |  |  | > 100 |  | > 100 |  | > 100
10 | CC(=O)/C(=C\c1cccc([N+](=O)[O-])c1)C(=O)Nc1ccccc1C |  | > 100 |  | > 100 |  |  |  | > 100 |  | > 100 |  | > 100 |  |  |  | > 100 |  | > 100 |  | > 100
11 | [Cl-].[La+3].[O-]/N=C(\c1ccccc1)c1ccccn1.[O-]/N=C(\c1ccccc1)c1ccccn1.[O-]/N=C(\c1ccccc1)c1ccccn1 |  |  | 39.2 | > 100 | 46 | > 100 | 36.5 | > 100 | 28.6 | > 76.4 | 41.8 | > 100 |  |  | 57.1 | > 100 | 38.5 | > 100 | 20.2 | 41.4
12 | Clc1ccc(C(c2ccc(Cl)cc2)c2ccccn2)cc1 |  | 29.5 |  |  |  | 33.8 |  | 49.8 |  | 33 |  | 38.6 |  |  |  | > 100 |  |  |  | 38
13 | C#CC1(O)CCC2C3CCc4cc(Oc5nc(F)nc(-c6c7ccccc7c7sc8ccccc8n67)n5)ccc4C3CC[C@@]21C (stereo not given in full) |  | > 100 |  | > 100 |  | > 100 |  | > 100 |  | > 100 |  | > 100 |  |  |  | > 100 |  | > 100 |  | 98.3
14 | Cc1cc(-c2ccc3nc(C4CCOCC4)n(CCOC(F)(F)F)c3c2)cn(C)c1=O | 0.552 | > 56.4 |  | 3.94 | 0.952 |  | 0.597 | 13.4 |  | 1.27 | 0.48 |  |  |  | 0.518 | 12.8 |  |  |  | 
15 | CCCCCCN(CCCCCC)C(=O)Cc1c2n(c3ccccc13)Cc1ccccc1-2 |  |  |  | > 100 |  | > 100 |  | > 100 |  | > 100 |  | > 100 |  |  |  | > 100 |  | > 100 |  | > 100
16 | CN(C)c1ccc(/C=C(\NC(=O)c2ccccc2)c2nc3ncncc3[nH]2)cc1 |  | > 100 |  | > 100 |  | > 100 |  | > 100 |  | > 100 |  | > 100 |  |  |  | > 100 |  | > 100 |  | > 100
17 | COc1cc(C2c3cc4c(cc3OC(C)(O)C2C)OCO4)cc(OC)c1OC (stereo not given) |  | > 100 |  | > 100 |  | > 100 |  | 14.2 |  | 2.36 |  | 0.761 |  | 24 |  | > 100 |  |  |  | 
18 | OC(c1nc2ccccc2[nH]1)C(O)C(O)C(O)c1nc2ccccc2[nH]1 (stereo not given) |  | > 100 |  | > 100 |  | > 100 |  | > 100 |  | > 100 |  | > 100 |  | > 100 |  |  |  | > 100 |  | > 100
19 | O=C(/C=C\c1ccc(Cl)c(Cl)c1)c1ccc(Cl)cc1Cl |  |  |  | 35.7 |  | 38 | 7.87 |  |  | 30.8 |  | 60.7 |  |  |  | 14.1 |  |  |  | 52.4

Source: PubChem BioAssay (NCI)
